Consider two compounds from patent US20250186396A1, “COMPOSITIONS AND METHODS FOR THE TREATMENT OF GLIOBLASTOMA WITH A DUAL TARGETING ANTI-TUMOR COMPOSITION” (Northwestern University, priority 2023, published 2025).

Test [1] relates to CT2A cells. The test can be described thus: Survival of mice intracranially implanted with CT2A cells. The test is classed as in vivo, C57BL/6 mice. The conditions noted are these: CT2A 2×10^4 cells/mouse; BAPN 2 g/L drinking water from day 4; SR9009 100 mg/kg i.p. 10 days from day 7; anti-PD1 10 mg/kg i.p. days 11, 14, 17; radiation 2.5 Gy 4 days from day 7. Here is the method:
Mice and Intracranial Xenograft Tumor Models. Female C57BL/6 mice at 3 to 4 weeks of age were purchased from the Jackson Laboratory (#0000664). All animals were grouped by 5 mice per cage and maintained in IVC System (San Diego, CA) for a week before the experiment. All animal experiments were performed with the approval of the Institutional Animal Care and Use Committee (IACUC) at Northwestern University. The intracranial xenograft tumor models were established previously. In brief, mice were anesthetized by isoflurane through IMPAC6 Anesthesia System. Then a dental drill was used to open a small hole in the skull of mice 1.2 mm anterior and 3.0 mm lateral to the bregma. Mice were placed into the stereotactic apparatus, and 5 μL 005 GSC, CT2A, or GL261 cells in FBS-free culture medium were injected into the right caudate nucleus 3 mm below the surface of the brain using a 10 μL Hamilton syringe with an unbeveled 30-gauge needle. The incision was closed using Vetbond glue. Meloxicam (20 mg/kg, daily) was subcutaneously injected for pain relief for 3 days after surgery. […]
Statistical analysis. […] The survival analysis for animal models was determined by conducting Log-rank (Mantel-Cox) test. […]

For test [2], the system named is LOX. Nature of the test: Immunoblots for LOX in CT2A cells and 005 GSCs. Particulars: immunoblot, SR9009 5 μM. The test is classed as cell-based, mouse. On the procedure:
Cell Culture. The GBM cell lines U87, U251, SF763, LN229, and CT2A, as well as 293T cells were cultured in Dulbecco's Modified Eagle's Medium (DMEM; Gibco, #11995-065). The mouse glioma cell line GL261 cells and SIM-A9 microglia were cultured in Dulbecco's Modified Eagle Medium-Ham's F12 medium (Gibco, #10565-018). HMC3 microglia were cultured in Eagle's Minimum Essential Medium (ATCC, #30-2003). THP-1 macrophages were cultured in RPMI 1640 medium (Gibco, #11875093). All cell lines were cultured in the indicated medium containing 10% fetal bovine serum (FBS; Fisher Scientific, #16140071) and 1:100 antibiotic-antimycotic (Gibco, #15140-122), and were purchased from the American Type Culture Collection (ATCC). Human GSCs (GSC23 and GSC7-10) and mouse GBM tumor-derived 005 GSCs and QPP7 GSCs were cultured in neural stem cell (NSC) proliferation media (Millipore, #SCM005) containing 20 ng/mL epidermal growth factor (EGF; PeproTech, #AF-100-15) and basic fibroblast growth factor (bFGF; PeproTech, #100-18B). Human GSCs were gifted by Dr. Frederick F. Lang from the Brain Tumor Center (The University of Texas MD Anderson Cancer Center). 005 GSCs and QPP7 GSCs were provided by Dr. Samuel D. Rabkin (Massachusetts General Hospital) and Dr. Jian Hu (The University of Texas MD Anderson Cancer Center), respectively. PTEN CRISPR KO in SF763 and LN229 cells were generated. […]
Background: In western blotting, separated proteins are transferred to a membrane and probed.

Structures are written as SMILES.

Turning to `N#CCCN` [BAPN, β-aminopropionitrile], the survival entry in test [1] was “extended the survival”.

In the case of `CCOC(=O)N1CCC(CN(Cc2ccc(Cl)cc2)Cc2ccc([N+](=O)[O-])s2)C1` (centres unmarked) [SR9009], the LOX expression entry in test [2] is “did not affect”.
